Assay results as given in patent US20230041563A1, “N-(1,3,4-OXADIAZOL-2-YL)ARYLCARBOXAMIDES OR SALTS THEREOF, PREPARATION METHODS, HERBICIDAL COMPOSITIONS AND USES THEREOF” (priority 2018, published 2023).

Experiments:
Type in all cases: in vivo
Abutilon theophrasti = assay: Weeding effect in post-emergence stage (greenhouse pot spray)
Method in brief: (§1)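 Greenhouse pot plants at the 2–3 leaf stage (2 weeks after sowing) were sprayed with compound in acetone with Tween 80 and methyl oleate EC synergist (1.5 L/ha) at 500, 250, 125, 60 or 15 g a.i./ha. Fresh-weight growth control was scored 3 weeks later, averaged over three replicates.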

Echinochloa crusgalli = assay: as above
Method in brief: as §1

Digitaria sanguinalis = assay: as above
Method in brief: as §1

Setaria viridis = assay: as above; conditions: Table 3, dose 60 g a.i./ha
Method in brief: as §1

weeds = assay: Actual control effects and combined effects of mixtures of active ingredients (i) and (ii), stem-leaf treatment, Gowing method; conditions: 20 days
Stellaria media = assay: Weeding effect in post-emergence stage (greenhouse pot spray)
Method in brief: as §1

Amaranthus retroflexus = assay: as above
Method in brief: as §1

Monochoria vaginalis = assay: Transplanted rice safety evaluation and weed control effect evaluation in rice field; conditions: Table 7, dose 125 g a.i./ha, 14 days after treatment
Method in brief: (§2)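 Paddy-soil pots, seeds sown and flooded (0.5-1 cm, then 3-4 cm water); Sagittaria grown from tubers. WP or SC dilutions dripped on at 0.5-leaf stage (Sagittaria at primary leaf). Visual 0-5 scoring of weeds at 14 days, rice at 21 days.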

Echinochloa crusgali = assay: as above; conditions: Table 7, dose 125 g a.i./ha, 14 days after treatment
Method in brief: as §2

Scirpus juncoides = assay: as above; conditions: Table 7, dose 125 g a.i./ha, 14 days after treatment
Method in brief: as §2

In the case of `CCSc1c(C(F)(F)F)ccc(C(=O)Nc2nnc(C)o2)c1F` [Compound 1-4], the “Abutilion theophrasti (activity level)” value (Abutilon theophrasti; Table 2, dose 125 g a.i./ha) is reported as 5 (Level 5: growth control rate is above 85%), the “Abutilion theophrasti (activity level)” value (Abutilon theophrasti; Table 2, dose 250 g a.i./ha) is reported as 5 (Level 5: growth control rate is above 85%) and the “Abutilon theophrasti (activity level)” value (Abutilon theophrasti; Table 3, dose 60 g a.i./ha) is reported as 5 (Level 5: growth control rate is above 85%). The “Echinochloa crusgah (activity level)” value (Echinochloa crusgalli; Table 2, dose 125 g a.i./ha) was 5 (Level 5: growth control rate is above 85%), the “Echinochloa crusgah (activity level)” value (Echinochloa crusgalli; Table 2, dose 250 g a.i./ha) was 5 (Level 5: growth control rate is above 85%) and the “Digitaria sanguinalis (activity level)” value (Digitaria sanguinalis; Table 2, dose 125 g a.i./ha) was 5 (Level 5: growth control rate is above 85%). For the same compound, the “Digitaria sanguinalis (activity level)” value (Digitaria sanguinalis; Table 2, dose 250 g a.i./ha) was 5 (Level 5: growth control rate is above 85%), the “Digitaria sanguinahs (activity level)” value (Digitaria sanguinalis; Table 3, dose 60 g a.i./ha) was 5 (Level 5: growth control rate is above 85%) and the “Setaria viridis (activity level)” value (Setaria viridis) was 5 (Level 5: growth control rate is above 85%). The “Control effect of (i) alone at corresponding dose” value (“Control effect of (i) alone” below) (weeds; Cyperus difformis, (i) 0.3 g a.i./mu) was 4.1%, the “Control effect of (i) alone” value (weeds; Cyperus difformis, (i) 1 g a.i./mu) was 6.3% and the “Control effect of (i) alone” value (weeds; Cyperus difformis, (i) 1.5 g a.i./mu) was 9.2%. For the same compound, the “Control effect of (i) alone” value (weeds; Cyperus difformis, (i) 3 g a.i./mu) was 15.2%, the “Control effect of (i) alone” value (weeds; Cyperus difformis, (i) 6 g a.i./mu) was 25.6% and the “Control effect of (i) alone” value (weeds; Cyperus difformis, (i) 9 g a.i./mu) was 32.1%. For the same compound, the “Control effect of (i) alone” value (weeds; Echinochloa phyllopogon, (i) 0.6 g a.i./mu) was 20.5%, the “Control effect of (i) alone” value (weeds; Echinochloa phyllopogon, (i) 0.7 g a.i./mu) was 25.1% and the “Control effect of (i) alone” value (weeds; Echinochloa phyllopogon, (i) 0.75 g a.i./mu) was 30.3%. For the same compound, the “Control effect of (i) alone” value (weeds; Echinochloa phyllopogon, (i) 1 g a.i./mu) was 36.6%, the “Control effect of (i) alone” value (weeds; Echinochloa phyllopogon, (i) 1.5 g a.i./mu) was 41.5% and the “Control effect of (i) alone” value (weeds; Echinochloa phyllopogon, (i) 1.6 g a.i./mu) was 45.3%. The “Control effect of (i) alone” value (weeds; Echinochloa phyllopogon, (i) 3 g a.i./mu) was 60.2%, the “Control effect of (i) alone” value (weeds; Leptochloa chinensis, (i) 3 g a.i./mu) was 18.6% and the “Control effect of (i) alone” value (weeds; Leptochloa chinensis, (i) 15 g a.i./mu) was 45.6%. For the same compound, the “Control effect of (i) alone” value (weeds; Monochoria vaginalis, (i) 0.8 g a.i./mu) was 5.8%, the “Control effect of (i) alone” value (weeds; Monochoria vaginalis, (i) 1 g a.i./mu) was 6.2% and the “Control effect of (i) alone” value (weeds; Monochoria vaginalis, (i) 1.8 g a.i./mu) was 8.6%. The “Control effect of (i) alone” value (weeds; Monochoria vaginalis, (i) 2.4 g a.i./mu) was 10.2%, the “Control effect of (i) alone” value (weeds; Monochoria vaginalis, (i) 3 g a.i./mu) was 12.7% and the “Control effect of (i) alone” value (weeds; Monochoria vaginalis, (i) 3.5 g a.i./mu) was 13.3%. The “Control effect of (i) alone” value (weeds; Monochoria vaginalis, (i) 5 g a.i./mu) was 19.6%, the “Control effect of (i) alone” value (weeds; Monochoria vaginalis, (i) 6 g a.i./mu) was 28.6% and the “Control effect of (i) alone” value (weeds; Monochoria vaginalis, (i) 10 g a.i./mu) was 31.7%. The “Control effect of (i) alone” value (weeds; Monochoria vaginalis, (i) 15 g a.i./mu) was 40.5%, the “Control effect of (i) alone” value (weeds; Sagittaria trifolia L., (i) 0.75 g a.i./mu) was 16.3% and the “Control effect of (i) alone” value (weeds; Sagittaria trifolia L., (i) 3 g a.i./mu) was 60.3%. For the same compound, the “Stellaria media (activity level)” value (Stellaria media; Table 2, dose 125 g a.i./ha) was 5 (Level 5: growth control rate is above 85%), the “Stellaria media (activity level)” value (Stellaria media; Table 2, dose 250 g a.i./ha) was 5 (Level 5: growth control rate is above 85%) and the “Amaranthus retroflexus (activity level)” value (Amaranthus retroflexus; Table 2, dose 125 g a.i./ha) was 5 (Level 5: growth control rate is above 85%). The “Amaranthus retroflexus (activity level)” value (Amaranthus retroflexus; Table 2, dose 250 g a.i./ha) was 5 (Level 5: growth control rate is above 85%), the “Monochoria vaginalis (activity level)” value (Monochoria vaginalis) was 5 (Level 5: growth control rate is above 85%) and the “Echinochloa crusgali (activity level)” value (Echinochloa crusgali) was 5 (Level 5: growth control rate is above 85%). For the same compound, the “Scirpus juncoides (activity level)” value (Scirpus juncoides) was 5 (Level 5: growth control rate is above 85%).
